Results from ChEMBL document CHEMBL1156728, “Allele-specific inhibition of divergent protein tyrosine phosphatases with a single small molecule” (Bioorg Med Chem, 2008).
pKi: −log10 of the molar value.

Columns and labels:
[1] = Inhibition of CCPGCC hexapeptide insertion containing PTPalpha-406 mutant at 1 uM; conditions: TDE = time-dependent effect
[2] = Inhibition of CCPGCC hexapeptide insertion containing PTPalpha-406 mutant
[3] = Inhibition of CCPGCC hexapeptide insertion containing PTP1B-186 mutant
[4] = Inhibition of CCPGCC hexapeptide insertion containing HePTP-211 mutant
[5] = Inhibition of CCPGCC hexapeptide insertion containing TCPTP-187 mutant
[6] = Inhibition of CCPGCC hexapeptide insertion containing PTPH1-816 mutant
[7] = Inhibition of CCPGCC hexapeptide insertion containing PTPH1-816 mutant at 1 uM; conditions: TDE = time-dependent effect
[8] = Inhibition of CCPGCC hexapeptide insertion containing PTP-PEST-204 mutant
[9] = Inhibition of CCPGCC hexapeptide insertion containing FAP1-2364 mutant

O=C(O)c1ccccc1-c1c2ccc(=O)c([As]3SCCS3)c-2oc2c([As]3SCCS3)c(O)ccc12
Activity [1]: tde
pKi [2]: 7.41
pKi [3]: 7.34
pKi [4]: 7.05
pKi [5]: 7.77
pKi [6]: 7.42
Activity [7]: tde
pKi [8]: 7.28
pKi [9]: 6.43
